# In publication PMC3411833, “The Two PPX-GppA Homologues from Mycobacterium tuberculosis Have Distinct Biochemical Activities” (PLoS ONE, 2012):
# T1: E. coli GPP (EC-GPP, GppA) (Escherichia coli, UniProt P25552)
# T1 construct: predicted 51 kDa; dimer
# T1 sequence (P25552 1-494): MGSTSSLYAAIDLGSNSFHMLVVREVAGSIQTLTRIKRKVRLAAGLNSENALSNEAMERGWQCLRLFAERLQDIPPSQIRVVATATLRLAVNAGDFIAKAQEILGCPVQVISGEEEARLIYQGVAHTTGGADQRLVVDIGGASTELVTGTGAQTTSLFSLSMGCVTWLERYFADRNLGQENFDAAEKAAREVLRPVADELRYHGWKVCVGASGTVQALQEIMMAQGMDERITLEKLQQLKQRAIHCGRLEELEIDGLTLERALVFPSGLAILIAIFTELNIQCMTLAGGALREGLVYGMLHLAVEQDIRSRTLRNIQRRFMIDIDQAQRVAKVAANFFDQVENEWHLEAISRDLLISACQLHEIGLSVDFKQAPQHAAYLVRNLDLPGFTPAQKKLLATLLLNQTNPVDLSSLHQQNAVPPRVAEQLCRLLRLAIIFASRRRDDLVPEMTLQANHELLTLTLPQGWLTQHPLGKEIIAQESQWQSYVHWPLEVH
# T2: E. coli PPX (EC-PPX) (Escherichia coli, UniProt P0AFL6)
# T2 construct: predicted 53 kDa; dimer
# T2 sequence (P0AFL6 2-513): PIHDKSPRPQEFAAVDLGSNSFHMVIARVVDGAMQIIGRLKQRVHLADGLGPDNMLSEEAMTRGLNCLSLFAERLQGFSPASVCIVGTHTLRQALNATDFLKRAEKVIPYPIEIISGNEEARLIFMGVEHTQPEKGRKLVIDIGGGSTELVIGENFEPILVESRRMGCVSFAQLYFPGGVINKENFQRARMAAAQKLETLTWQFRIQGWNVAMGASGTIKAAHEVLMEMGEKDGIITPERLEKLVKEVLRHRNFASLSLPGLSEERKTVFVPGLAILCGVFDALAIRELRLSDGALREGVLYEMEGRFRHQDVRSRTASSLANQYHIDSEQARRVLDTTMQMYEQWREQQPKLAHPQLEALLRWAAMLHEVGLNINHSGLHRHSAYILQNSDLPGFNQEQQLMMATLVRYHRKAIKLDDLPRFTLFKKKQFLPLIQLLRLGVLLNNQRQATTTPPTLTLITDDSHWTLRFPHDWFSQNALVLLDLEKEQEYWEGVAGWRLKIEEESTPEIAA
# B1: E. coli exopolyphosphatase (PPX) (enzyme, E. coli BL21 (DE3), UniProt P0AFL6 1-513, looked up)
# chain: MPIHDKSPRPQEFAAVDLGSNSFHMVIARVVDGAMQIIGRLKQRVHLADGLGPDNMLSEEAMTRGLNCLSLFAERLQGFSPASVCIVGTHTLRQALNATDFLKRAEKVIPYPIEIISGNEEARLIFMGVEHTQPEKGRKLVIDIGGGSTELVIGENFEPILVESRRMGCVSFAQLYFPGGVINKENFQRARMAAAQKLETLTWQFRIQGWNVAMGASGTIKAAHEVLMEMGEKDGIITPERLEKLVKEVLRHRNFASLSLPGLSEERKTVFVPGLAILCGVFDALAIRELRLSDGALREGVLYEMEGRFRHQDVRSRTASSLANQYHIDSEQARRVLDTTMQMYEQWREQQPKLAHPQLEALLRWAAMLHEVGLNINHSGLHRHSAYILQNSDLPGFNQEQQLMMATLVRYHRKAIKLDDLPRFTLFKKKQFLPLIQLLRLGVLLNNQRQATTTPPTLTLITDDSHWTLRFPHDWFSQNALVLLDLEKEQEYWEGVAGWRLKIEEESTPEIAA
# notes: also called EC-PPX; E. coli PPX; source: E. coli BL21(DE3), purified (HiTrap Chelating HP, eluted with 60 mM imidazole)
# B2: E. coli guanosine pentaphosphate 5'-phosphohydrolase (GPP, GppA) (enzyme, E. coli BL21 (DE3), UniProt P25552 1-494, looked up)
# chain: T1 sequence (P25552 1-494)
# notes: also called EC-GPP; E. coli GPP; source: E. coli BL21(DE3), purified (HiTrap Chelating HP, eluted with 60 mM imidazole)
# B3: Rv0496 (MTB-PPX1) protein from Mycobacterium tuberculosis H37Rv (enzyme)
# chain: MRLGVLDVGSNTVHLLVVDAHRGGHPTPMSSTKATLRLAEATDSSGKITKRGADKLISTIDEFAKIAISSGCAELMAFATSAVRDAENSEDVLSRVRKETGVELQALRGEDESRLTFLAVRRWYGWSAGRILNLDIGGGSLEVSSGVDEEPEIALSLPLGAGRLTREWLPDDPPGRRRVAMLRDWLDAELAEPSVTVLEAGSPDLAVATSKTFRSLARLTGAAPSMAGPRVKRTLTANGLRQLIAFISRMTAVDRAELEGVSADRAPQIVAGALVAEASMRALSIEAVEICPWALREGLILRKLDSEADGTALIESSSVHTSVRAVGGQPADRNAANRSRGSKP
# Assays:
# [1] = target: T1, E. coli GPP (EC-GPP, GppA); assay: GTP hydrolysis, anion exchange chromatography; type: biochemical; details: 1 mM GTP, 1 mM MnCl2, 4 mM (NH4)2SO4, 50 mM Tris-HCl pH 7.4, 37°C
# [2] = target: T1, E. coli GPP (EC-GPP, GppA); assay: inhibition of poly-P130 hydrolysis, EnzChek phosphate release; type: biochemical; details: poly-P130 125 µM, 1 mM MnCl2, 25 mM KCl, 50 mM HEPES pH 6.8, 37°C
# Excerpt: inhibition of poly-P130 hydrolysis, EnzChek phosphate release on E. coli GPP (EC-GPP, GppA)
# E. coli PPX (EC-PPX) = target: T2, E. coli PPX (EC-PPX); assay: as above; type: biochemical; details: poly-P130 125 µM, 1 mM MnCl2, 25 mM KCl, 50 mM HEPES pH 6.8, 37°C
# Excerpt: inhibition of poly-P130 hydrolysis, EnzChek phosphate release on E. coli PPX (EC-PPX)
# [3] = target: Rv1026 protein from Mycobacterium tuberculosis H37Rv (Mycobacterium tuberculosis H37Rv); assay: SEC + other: dynamic light scattering
# [4] = target: the molecule itself; assay: SEC + other: dynamic light scattering; Superdex 200 gel filtration calibrated with protein standards; light scattering of 2, 1 and 0.5 mg/ml protein in 25 mM Tris-HCl pH 7.4, 25 mM NaCl (DynaPro Plate Reader Plus); self-association, dimer
# [5] = target: the molecule itself; assay: SEC + other: dynamic light scattering
molecule,measurement,setting,value
Nc1nc2c(ncn2[C@@H]2O[C@H](COP(=O)(O)OP(=O)(O)OP(=O)(O)O)[C@@H](O)[C@H]2O)c(=O)[nH]1 [GTP],"GTP hydrolysis, anion exchange chromatography",[1],the E. coli GPP protein was a highly efficient GTPase and a modest ATPase
"Nc1nc2c(ncn2[C@@H]2O[C@H](COP(=O)(O)OP(=O)(O)OP(=O)(O)O)[C@@H](OP(=O)(O)OP(=O)(O)O)[C@H]2O)c(=O)[nH]1 [pppGpp, guanosine 5′-triphosphate, 3′-diphosphate]",Exopolyphosphatase activities / +1 mM pppGpp / (% decrease) / ATPase activities,[2],29.5±4.4%
same,Exopolyphosphatase activities / +1 mM pppGpp / (% decrease) / ATPase activities,E. coli PPX (EC-PPX),89.6±20.1%
Rv1026 protein from Mycobacterium tuberculosis H37Rv (enzyme),stoichiometry N,[3],2
"Nc1nc2c(ncn2[C@@H]2O[C@H](COP(=O)(O)OP(=O)(O)O)[C@@H](OP(=O)(O)OP(=O)(O)O)[C@H]2O)c(=O)[nH]1 [ppGpp, guanosine 3′,5′-bisdiphosphate]",Exopolyphosphatase activities / +1 mM ppGpp / (% decrease) / ATPase activities,[2],6.0±0.5%
same,Exopolyphosphatase activities / +1 mM ppGpp / (% decrease) / ATPase activities,E. coli PPX (EC-PPX),10.8±1.2%
B1,stoichiometry N,[4],2
B2,stoichiometry N,[4],2
B3,stoichiometry N,[5],2
